Assay results taken from article PMC7194404, “Arg-type dihydroflavonol 4-reductase genes from the fern Dryopteris erythrosora play important roles in the biosynthesis of anthocyanins” (PLoS ONE, 2020).

Legend:
Experiment in all cases: HPLC of anthocyanidin formed from product, crude E. coli extract
Format in all cases: biochemical
Settings in all cases: 0.8 mM substrate, 1.6 mM NADPH, 50 mM Tris-HCl pH 7.0, 30 °C, 30 min
[1] = target: T1, DeDFR2 (Dryopteris erythrosora, UniProt A0A5P8I1W3)
T1 construct: gene DFR2
T1 sequence (A0A5P8I1W3 1-341): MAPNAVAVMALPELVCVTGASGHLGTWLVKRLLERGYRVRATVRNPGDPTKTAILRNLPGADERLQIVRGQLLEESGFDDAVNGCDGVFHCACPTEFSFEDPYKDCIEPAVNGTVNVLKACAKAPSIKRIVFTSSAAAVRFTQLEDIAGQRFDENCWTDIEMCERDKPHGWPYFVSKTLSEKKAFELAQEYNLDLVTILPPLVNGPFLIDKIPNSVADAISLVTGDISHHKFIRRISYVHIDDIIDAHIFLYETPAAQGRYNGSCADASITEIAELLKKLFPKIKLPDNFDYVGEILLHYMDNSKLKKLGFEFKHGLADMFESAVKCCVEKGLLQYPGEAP

[2] = target: T2, DeDFR1 (Dryopteris erythrosora, UniProt A0A5P8I1X0)
T2 construct: gene DFR1
T2 sequence (A0A5P8I1X0 1-328): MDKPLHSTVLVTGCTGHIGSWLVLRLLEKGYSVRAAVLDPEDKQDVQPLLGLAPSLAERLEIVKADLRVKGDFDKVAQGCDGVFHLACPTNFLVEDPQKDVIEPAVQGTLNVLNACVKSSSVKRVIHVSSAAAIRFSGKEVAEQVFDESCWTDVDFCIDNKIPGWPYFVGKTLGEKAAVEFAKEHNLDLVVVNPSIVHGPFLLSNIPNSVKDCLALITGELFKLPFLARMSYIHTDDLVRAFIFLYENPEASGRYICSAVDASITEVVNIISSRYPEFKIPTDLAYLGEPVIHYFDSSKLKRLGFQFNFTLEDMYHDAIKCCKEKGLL

[3] = target: T3, AtDFR (Arabidopsis thaliana, UniProt P51102)
T3 construct: gene DFRA; pET28a-AtDFR, E. coli BL21(DE3), crude soluble extract
T3 sequence (P51102 1-382): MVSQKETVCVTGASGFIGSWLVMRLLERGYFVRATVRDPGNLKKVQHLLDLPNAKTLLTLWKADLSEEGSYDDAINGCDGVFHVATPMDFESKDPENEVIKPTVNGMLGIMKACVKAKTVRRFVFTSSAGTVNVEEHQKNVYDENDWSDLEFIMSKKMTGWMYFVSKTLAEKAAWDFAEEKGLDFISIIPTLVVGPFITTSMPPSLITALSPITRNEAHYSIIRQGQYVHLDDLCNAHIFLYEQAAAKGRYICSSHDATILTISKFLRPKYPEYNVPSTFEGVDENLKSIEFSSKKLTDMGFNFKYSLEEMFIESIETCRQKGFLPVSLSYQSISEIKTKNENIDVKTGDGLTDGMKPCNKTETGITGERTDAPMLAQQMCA

Compound | HPLC of anthocyanidin formed from product, crude E. coli extract [1] | HPLC of anthocyanidin formed from product, crude E. coli extract [2] | HPLC of anthocyanidin formed from product, crude E. coli extract [3]
O=C1c2c(O)cc(O)cc2O[C@H](c2ccc(O)c(O)c2)[C@H]1O [DHQ, dihydroquercetin] | DeDFR1 and DeDFR2 had the ability to catalyze the DHK and DHQ reaction | DeDFR1 and DeDFR2 had the ability to catalyze the DHK and DHQ reaction | all three dihydroflavonols could be converted to pink anthocyanins
O=C1c2c(O)cc(O)cc2O[C@H](c2ccc(O)cc2)[C@H]1O [DHK, dihydrokaempferol] | DeDFR1 and DeDFR2 had the ability to catalyze the DHK and DHQ reaction | DeDFR1 and DeDFR2 had the ability to catalyze the DHK and DHQ reaction | 
O=C1c2c(O)cc(O)cc2O[C@H](c2cc(O)c(O)c(O)c2)[C@H]1O [DHM, dihydromyricetin] |  |  | all three dihydroflavonols could be converted to pink anthocyanins
